According to the NIST ThermoML archive (doi:10.1021/acs.jced.6b00121):

Assay: xn = mol fraction of the nth substance listed
Conditions: 100 kPa, Liquid; for viscosity: Falling or rolling sphere viscometry; for mass density: Vibrating tube method

CCCCCCCCCCC [undecane] + CCCCCO
Conditions | mass density [kg/m3] | viscosity [mPa·s]
283.15 K, x1 = 0.0999 | 808.13 | 4.269
283.15 K, x1 = 0.2 | 796.68 | 3.406
283.15 K, x1 = 0.3026 | 786.76 | 2.731
283.15 K, x1 = 0.4001 | 778.65 | 2.21
283.15 K, x1 = 0.5022 | 771.41 | 1.884
283.15 K, x1 = 0.5976 | 765.49 | 1.694
283.15 K, x1 = 0.6984 | 760.02 | 1.551
283.15 K, x1 = 0.801 | 755.27 | 1.452
283.15 K, x1 = 0.8822 | 751.87 | 1.413
283.15 K, x1 = 1 | 747.78 | 1.371
288.15 K, x1 = 0.0999 | 804.49 | 3.679
288.15 K, x1 = 0.2 | 792.98 | 2.958
288.15 K, x1 = 0.3026 | 783.04 | 2.39
288.15 K, x1 = 0.4001 | 774.92 | 1.945
288.15 K, x1 = 0.5022 | 767.66 | 1.689
288.15 K, x1 = 0.5976 | 761.74 | 1.535
288.15 K, x1 = 0.6984 | 756.3 | 1.419
288.15 K, x1 = 0.801 | 751.55 | 1.335
288.15 K, x1 = 0.8822 | 748.15 | 1.287
288.15 K, x1 = 1 | 744.06 | 1.249
293.15 K, x1 = 0.0999 | 800.81 | 3.187
293.15 K, x1 = 0.2 | 789.27 | 2.58
293.15 K, x1 = 0.3026 | 779.3 | 2.103
293.15 K, x1 = 0.4001 | 771.17 | 1.743
293.15 K, x1 = 0.5022 | 763.91 | 1.529
293.15 K, x1 = 0.5976 | 757.99 | 1.404
293.15 K, x1 = 0.6984 | 752.55 | 1.308
293.15 K, x1 = 0.801 | 747.81 | 1.236
293.15 K, x1 = 0.8822 | 744.41 | 1.176
293.15 K, x1 = 1 | 740.35 | 1.145
298.15 K, x1 = 0.0999 | 797.12 | 2.777
298.15 K, x1 = 0.2 | 785.54 | 2.26
298.15 K, x1 = 0.3026 | 775.54 | 1.862
298.15 K, x1 = 0.4001 | 767.4 | 1.571
298.15 K, x1 = 0.5022 | 760.13 | 1.395
298.15 K, x1 = 0.5976 | 754.22 | 1.295
298.15 K, x1 = 0.6984 | 748.78 | 1.214
298.15 K, x1 = 0.801 | 744.05 | 1.153
298.15 K, x1 = 0.8822 | 740.67 | 1.08
298.15 K, x1 = 1 | 736.64 | 1.062
303.15 K, x1 = 0.0999 | 793.4 | 2.428
303.15 K, x1 = 0.2 | 781.78 | 1.995
303.15 K, x1 = 0.3026 | 771.75 | 1.656
303.15 K, x1 = 0.4001 | 763.6 | 1.428
303.15 K, x1 = 0.5022 | 756.32 | 1.283
303.15 K, x1 = 0.5976 | 750.42 | 1.202
303.15 K, x1 = 0.6984 | 745 | 1.095
303.15 K, x1 = 0.801 | 740.28 | 1.026
303.15 K, x1 = 0.8822 | 736.92 | 0.999
303.15 K, x1 = 1 | 732.93 | 0.982
308.15 K, x1 = 0.0999 | 789.65 | 2.136
308.15 K, x1 = 0.2 | 777.98 | 1.768
308.15 K, x1 = 0.3026 | 767.93 | 1.481
308.15 K, x1 = 0.4001 | 759.77 | 1.29
308.15 K, x1 = 0.5022 | 752.5 | 1.153
308.15 K, x1 = 0.5976 | 746.6 | 1.062
308.15 K, x1 = 0.6984 | 741.2 | 0.998
308.15 K, x1 = 0.801 | 736.49 | 0.951
308.15 K, x1 = 0.8822 | 733.14 | 0.922
308.15 K, x1 = 1 | 729.23 | 0.91
313.15 K, x1 = 0.0999 | 785.86 | 1.887
313.15 K, x1 = 0.2 | 774.15 | 1.572
313.15 K, x1 = 0.3026 | 764.08 | 1.33
313.15 K, x1 = 0.4001 | 755.91 | 1.17
313.15 K, x1 = 0.5022 | 748.64 | 1.058
313.15 K, x1 = 0.5976 | 742.76 | 0.976
313.15 K, x1 = 0.6984 | 737.36 | 0.924
313.15 K, x1 = 0.801 | 732.67 | 0.881
313.15 K, x1 = 0.8822 | 729.34 | 0.859
313.15 K, x1 = 1 | 725.53 | 0.847
318.15 K, x1 = 0.0999 | 782.03 | 1.675
318.15 K, x1 = 0.2 | 770.28 | 1.409
318.15 K, x1 = 0.3026 | 760.19 | 1.2
318.15 K, x1 = 0.4001 | 752.02 | 1.065
318.15 K, x1 = 0.5022 | 744.75 | 0.972
318.15 K, x1 = 0.5976 | 738.88 | 0.902
318.15 K, x1 = 0.6984 | 733.51 | 0.856
318.15 K, x1 = 0.801 | 728.83 | 0.819
318.15 K, x1 = 0.8822 | 725.53 | 0.801
318.15 K, x1 = 1 | 721.82 | 0.79
323.15 K, x1 = 0.0999 | 778.15 | 1.468
323.15 K, x1 = 0.2 | 766.37 | 1.266
323.15 K, x1 = 0.3026 | 756.27 | 1.087
323.15 K, x1 = 0.4001 | 748.09 | 0.974
323.15 K, x1 = 0.5022 | 740.84 | 0.896
323.15 K, x1 = 0.5976 | 734.98 | 0.836
323.15 K, x1 = 0.6984 | 729.62 | 0.796
323.15 K, x1 = 0.801 | 724.97 | 0.764
323.15 K, x1 = 0.8822 | 721.69 | 0.748
323.15 K, x1 = 1 | 718.11 | 0.74
328.15 K, x1 = 0.0999 | 774.23 | 1.336
328.15 K, x1 = 0.2 | 762.42 | 1.142
328.15 K, x1 = 0.3026 | 752.3 | 0.989
328.15 K, x1 = 0.4001 | 744.13 | 0.895
328.15 K, x1 = 0.5022 | 736.88 | 0.828
328.15 K, x1 = 0.5976 | 731.04 | 0.776
328.15 K, x1 = 0.6984 | 725.7 | 0.742
328.15 K, x1 = 0.801 | 721.07 | 0.714
328.15 K, x1 = 0.8822 | 717.84 | 0.702
328.15 K, x1 = 1 | 714.39 | 0.692
333.15 K, x1 = 0.0999 | 770.26 | 1.2
333.15 K, x1 = 0.2 | 758.42 | 1.035
333.15 K, x1 = 0.3026 | 748.29 | 0.903
333.15 K, x1 = 0.4001 | 740.12 | 0.825
333.15 K, x1 = 0.5022 | 732.89 | 0.767
333.15 K, x1 = 0.5976 | 727.07 | 0.723
333.15 K, x1 = 0.6984 | 721.76 | 0.694
333.15 K, x1 = 0.801 | 717.15 | 0.67
333.15 K, x1 = 0.8822 | 713.96 | 0.659
333.15 K, x1 = 1 | 710.68 | 0.651
338.15 K, x1 = 0.0999 | 766.24 | 1.082
338.15 K, x1 = 0.2 | 754.37 | 0.94
338.15 K, x1 = 0.3026 | 744.23 | 0.827
338.15 K, x1 = 0.4001 | 736.07 | 0.763
338.15 K, x1 = 0.5022 | 728.86 | 0.714
338.15 K, x1 = 0.5976 | 723.06 | 0.675
338.15 K, x1 = 0.6984 | 717.77 | 0.652
338.15 K, x1 = 0.801 | 713.2 | 0.63
338.15 K, x1 = 0.8822 | 710.06 | 0.621
338.15 K, x1 = 1 | 706.95 | 0.615
343.15 K, x1 = 0.0999 | 762.15 | 0.979
343.15 K, x1 = 0.2 | 750.25 | 0.857
343.15 K, x1 = 0.3026 | 740.12 | 0.76
343.15 K, x1 = 0.4001 | 731.98 | 0.708
343.15 K, x1 = 0.5022 | 724.77 | 0.666
343.15 K, x1 = 0.5976 | 719 | 0.633
343.15 K, x1 = 0.6984 | 713.75 | 0.613
343.15 K, x1 = 0.801 | 709.22 | 0.594
343.15 K, x1 = 0.8822 | 706.13 | 0.587
343.15 K, x1 = 1 | 703.22 | 0.58
348.15 K, x1 = 0.0999 | 758.01 | 0.889
348.15 K, x1 = 0.2 | 746.09 | 0.784
348.15 K, x1 = 0.3026 | 735.95 | 0.701
348.15 K, x1 = 0.4001 | 727.83 | 0.659
348.15 K, x1 = 0.5022 | 720.65 | 0.624
348.15 K, x1 = 0.5976 | 714.91 | 0.595
348.15 K, x1 = 0.6984 | 709.7 | 0.578
348.15 K, x1 = 0.801 | 705.21 | 0.561
348.15 K, x1 = 0.8822 | 702.19 | 0.556
348.15 K, x1 = 1 | 699.47 | 0.549
353.15 K, x1 = 0.0999 | 753.8 | 0.81
353.15 K, x1 = 0.2 | 741.87 | 0.72
353.15 K, x1 = 0.3026 | 731.74 | 0.649
353.15 K, x1 = 0.4001 | 723.64 | 0.615
353.15 K, x1 = 0.5022 | 716.49 | 0.585
353.15 K, x1 = 0.5976 | 710.78 | 0.56
353.15 K, x1 = 0.6984 | 705.61 | 0.545
353.15 K, x1 = 0.801 | 701.17 | 0.531
353.15 K, x1 = 0.8822 | 698.22 | 0.528
353.15 K, x1 = 1 | 695.72 | 0.522
358.15 K, x1 = 0.0999 | 749.51 | 0.744
358.15 K, x1 = 0.2 | 737.58 | 0.663
358.15 K, x1 = 0.3026 | 727.46 | 0.602
358.15 K, x1 = 0.4001 | 719.38 | 0.577
358.15 K, x1 = 0.5022 | 712.26 | 0.551
358.15 K, x1 = 0.5976 | 706.59 | 0.528
358.15 K, x1 = 0.6984 | 701.47 | 0.517
358.15 K, x1 = 0.801 | 697.1 | 0.504
358.15 K, x1 = 0.8822 | 694.22 | 0.502
358.15 K, x1 = 1 | 691.96 | 0.497
363.15 K, x1 = 0.0999 | 745.17 | 0.68
363.15 K, x1 = 0.2 | 733.23 | 0.614
363.15 K, x1 = 0.3026 | 723.13 | 0.56
363.15 K, x1 = 0.4001 | 715.08 | 0.542
363.15 K, x1 = 0.5022 | 708 | 0.519
363.15 K, x1 = 0.5976 | 702.37 | 0.5
363.15 K, x1 = 0.6984 | 697.3 | 0.49
363.15 K, x1 = 0.801 | 692.99 | 0.48
363.15 K, x1 = 0.8822 | 690.22 | 0.48
363.15 K, x1 = 1 | 688.18 | 0.475
